From patent US8299048B2, “Hexahydrocyclopentyl[f]indazole sulfonamides and derivatives thereof as selective glucocorticoid receptor modulators” (Merck Sharp & Dohme Corp., priority 2008, dated 2012) come the findings set out here.

The experiment concerns the target T1, human GR (Homo sapiens, UniProt P04150).
T1 sequence (P04150 1-777): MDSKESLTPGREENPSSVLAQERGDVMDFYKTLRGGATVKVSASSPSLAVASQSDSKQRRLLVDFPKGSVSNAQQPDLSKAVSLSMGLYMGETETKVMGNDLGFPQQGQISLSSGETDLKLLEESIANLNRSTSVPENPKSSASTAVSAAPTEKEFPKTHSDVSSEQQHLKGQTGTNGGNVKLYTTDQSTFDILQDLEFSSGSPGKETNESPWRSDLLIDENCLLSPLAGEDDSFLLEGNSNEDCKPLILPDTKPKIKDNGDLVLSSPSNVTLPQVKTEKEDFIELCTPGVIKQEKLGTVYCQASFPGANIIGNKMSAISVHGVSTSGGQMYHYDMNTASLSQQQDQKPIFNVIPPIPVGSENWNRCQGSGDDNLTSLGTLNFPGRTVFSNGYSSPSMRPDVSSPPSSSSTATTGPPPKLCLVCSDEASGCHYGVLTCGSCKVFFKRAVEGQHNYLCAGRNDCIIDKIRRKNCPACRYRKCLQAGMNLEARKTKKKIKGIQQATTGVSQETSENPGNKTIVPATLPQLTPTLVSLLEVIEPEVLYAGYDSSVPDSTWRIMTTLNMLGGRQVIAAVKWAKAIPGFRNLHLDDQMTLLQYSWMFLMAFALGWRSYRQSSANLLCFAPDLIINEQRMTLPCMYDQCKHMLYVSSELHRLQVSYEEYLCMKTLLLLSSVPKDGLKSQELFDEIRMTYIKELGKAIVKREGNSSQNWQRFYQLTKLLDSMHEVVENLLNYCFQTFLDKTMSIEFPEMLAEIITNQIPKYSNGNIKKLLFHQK
The experiment in a line: Transrepression Assay (GITAR), TNFα-β-lactamase reporter in U937 cells. The format is cell-based. Also noted: U937 cells contain an endogenous glucocorticoid receptor (GR); endogenous in cells; host or cells: U937 cells stably transfected with the TNF-alpha promoter/beta-lactamase reporter. The settings on record: for GITAR > GRAMM % SEP: GITAR Emax minus GRAMMER Emax; for EC50: U937 cells, inflection point, read-out: Transrepression U937 Cells GITAR IP. In short, it runs like this: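 First, U937 reporter cells (TNF-α promoter–β-lactamase, native GR) received compound for 30–45 min at 37 °C. Next, PMA (5 ng/ml) and LPS (100 ng/ml) final were added for about 18 hr. Finally, CCF2-AM loading gave the read-out, with 100 nM dexamethasone as 100%.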

The mark [1] stands for this setting: U-937, U937 cells, maximum activity, read-out: Transrepression U937 Cells GITAR Emax.
Setting [2] is: U-937, activity repressed by 100 nM dexamethasone alone set as 100%, read-out: maximal activity in the transrepression (GITAR) assay.

Molecules are shown by their SMILES. Like-named read-outs stand apart in the source and are kept apart here.

In the case of `C[C@]12Cc3cnn(-c4ccc(F)cc4)c3C=C1CC[C@@H]2CN(CCc1ccc(O)cc1)S(=O)(=O)CC(F)(F)F` [Example 130, 2,2,2-trifluoro-N-{[(4αR,5S)-1-(4-fluorophenyl)-4α-methyl-1,4,4α,5,6,7-hexahydrocyclopenta[f]indazol-5-yl]methyl}-N-[2-(4-hydroxyphenyl)ethyl]ethanesulfonamide], the “GITAR > GRAMM % SEP” value amounted to 13.6% and the EC50 worked out at 0.229 µM. The Emax under setting [1] worked out at 79.7%. In addition, the Emax under setting [2] is over 5%.

In the case of `C[C@]12Cc3cnn(-c4ccc(F)cc4)c3C=C1CC[C@@H]2CN(CCc1ccccc1O)S(=O)(=O)Cc1cccnc1` [Example 131, N-{[(4αR,5S)-1-(4-fluorophenyl)-4α-methyl-1,4,4α,5,6,7-hexahydrocyclopenta[f]indazol-5-yl]methyl}-N-[2-(2-hydroxyphenyl)ethyl]-1-pyridin-3-ylmethanesulfonamide], the “GITAR > GRAMM % SEP” value was determined as 22.9% and the EC50 stood at 0.437 µM. Also, under setting [1], the Emax came out at 60.3%. Moreover, the Emax under setting [2] was over 5%.

Take `C[C@]12Cc3cnn(-c4ccc(F)cc4)c3C=C1CC[C@@H]2CN(Cc1cccnn1)S(=O)(=O)CC(F)(F)F` [Example 132, 2,2,2-trifluoro-N-{[(4αR,5S)-1-(4-fluorophenyl)-4α-methyl-1,4,4α,5,6,7-hexahydrocyclopenta[f]indazol-5-yl]methyl}-N-(pyridazin-3-ylmethyl)ethanesulfonamide]: the “GITAR > GRAMM % SEP” value stood at 50.8% and the EC50 is 0.791 µM. Also, the Emax under setting [1] is 74%. Also, the Emax under setting [2] is over 5%.

For the molecule `C[C@]12Cc3cnn(-c4ccc(F)cc4)c3C=C1CC[C@@H]2CN(CC(O)C(F)F)S(=O)(=O)CC(F)(F)F` (stereo partly drawn) [Example 133, N-(3,3-difluoro-2-hydroxypropyl)-2,2,2-trifluoro-N-{[(4αR,5S)-1-(4-fluorophenyl)-4α-methyl-1,4,4α,5,6,7-hexahydrocyclopenta[f]indazol-5-yl]methyl}ethanesulfonamide], the “GITAR > GRAMM % SEP” value came to 22.5% and the EC50 was 0.0826 µM. Also, under setting [1], the Emax came to 95.9%. In addition, under setting [2], the Emax was over 5%.

`C[C@]12Cc3cnn(-c4ccc(F)cc4)c3C=C1CC[C@@H]2CN(CC(OS(=O)(=O)CC(F)(F)F)C(F)F)S(=O)(=O)CC(F)(F)F` (stereo partly drawn) [Example 134, 2,2-difluoro-1-({{[(4αR,5S)-1-(4-fluorophenyl)-4α-methyl-1,4,4α,5,6,7-hexahydrocyclopenta[f]indazol-5-yl]methyl}[(2,2,2-trifluoroethyl)sulfonyl]amino}methyl)ethyl 2,2,2-trifluoroethanesulfonate]: the “GITAR > GRAMM % SEP” value is given as 4.7% and the EC50 amounted to 0.243 µM. Also, the Emax under setting [1] was found to be 93.8%. For the same molecule, the Emax under setting [2] was over 5%.

`C[C@]12Cc3cnn(-c4ccc(F)cc4)c3C=C1CC[C@@H]2CN(CC1(O)CC1)S(=O)(=O)CC(F)(F)F` [Example 135, 2,2,2-trifluoro-N-{[(4αR,5S)-1-(4-fluorophenyl)-4α-methyl-1,4,4α,5,6,7-hexahydrocyclopenta[f]indazol-5-yl]methyl}-N-[(1-hydroxycyclopropyl)methyl]ethanesulfonamide]: the “GITAR > GRAMM % SEP” value is recorded as 19.2% and the EC50 is 0.258 µM. Also, the Emax under setting [1] was determined as 87.9%. Further, under setting [2], the Emax was over 5%.

In the case of `C[C@]12Cc3cnn(-c4ccc(F)cc4)c3C=C1CC[C@@H]2CN(CC1(OS(=O)(=O)CC(F)(F)F)CC1)S(=O)(=O)CC(F)(F)F` [Example 136, 1-({{[(4αR,5S)-1-(4-fluorophenyl)-4α-methyl-1,4,4α,5,6,7-hexahydrocyclopenta[f]indazol-5-yl]methyl}[(2,2,2-trifluoroethyl)sulfonyl]amino}methyl)cyclopropyl 2,2,2-trifluoroethanesulfonate], the “GITAR > GRAMM % SEP” value is recorded as 42.0% and the EC50 was 0.441 µM. For the same molecule, the Emax under setting [1] was found to be 101%. Moreover, the Emax under setting [2] is over 5%.

Take `C[C@]12Cc3cnn(-c4ccccc4)c3C=C1CC[C@@H]2CN(CCc1ccccc1F)S(=O)(=O)CC(F)(F)F` [Example 137, 2,2,2-trifluoro-N-[2-(2-fluorophenyl)ethyl]-N-{[(4αR,5S)-4α-methyl-1-phenyl-1,4,4α,5,6,7-hexahydrocyclopenta[f]indazol-5-yl]methyl}ethanesulfonamide]: the “GITAR > GRAMM % SEP” value is on record as 14.0% and the EC50 came out at 0.324 µM. For the same molecule, the Emax under setting [1] was 87.6%. Also, the Emax under setting [2] was over 5%.

For the molecule `C[C@]12Cc3cnn(-c4ccccc4)c3C=C1CC[C@@H]2CN(CCc1ccccn1)S(=O)(=O)CC(F)(F)F` [Example 138, 2,2,2-trifluoro-N-{[(4αR,5S)-4α-methyl-1-phenyl-1,4,4α,5,6,7-hexahydrocyclopenta[f]indazol-5-yl]methyl}-N-(2-pyridin-2-ylethyl)ethanesulfonamide], the “GITAR > GRAMM % SEP” value is 5.6% and the EC50 came to 0.433 µM. For the same molecule, under setting [1], the Emax came to 83.7%. Besides, the Emax under setting [2] is over 5%.

In the case of `COc1ccccc1CCN(C[C@H]1CCC2=Cc3c(cnn3-c3ccccc3)C[C@@]21C)S(=O)(=O)CC(F)(F)F` [Example 139, 2,2,2-trifluoro-N-[2-(2-methoxyphenyl)ethyl]-N-{[(4αR,5S)-4α-methyl-1-phenyl-1,4,4α,5,6,7-hexahydrocyclopenta[f]indazol-5-yl]methyl}ethanesulfonamide], the “GITAR > GRAMM % SEP” value came to 1.7% and the EC50 came out at 0.798 µM. Moreover, under setting [1], the Emax is 72.4%. For the same molecule, under setting [2], the Emax was over 5%.

Consider `C[C@]12Cc3cnn(-c4ccccc4)c3C=C1CC[C@@H]2CN(CCc1ccccn1)S(=O)(=O)Cc1cccnc1` [Example 140, N-{[(4αR,5S)-4α-methyl-1-phenyl-1,4,4α,5,6,7-hexahydrocyclopenta[f]indazol-5-yl]methyl}-1-pyridin-3-yl-N-(2-pyridin-2-ylethyl)methanesulfonamide], for which the EC50 is 1.57 µM. The Emax under setting [1] was 37%. Further, under setting [2], the Emax is over 5%.

With `C[C@]12Cc3cnn(-c4ccccc4)c3C=C1CC[C@@H]2CN(CCc1ccccc1O)S(=O)(=O)Cc1cccnc1` [Example 141, N-[2-(2-hydroxyphenyl)ethyl]-N-{[(4αR,5S)-4α-methyl-1-phenyl-1,4,4α,5,6,7-hexahydrocyclopenta[f]indazol-5-yl]methyl}-1-pyridin-3-ylmethanesulfonamide], the “GITAR > GRAMM % SEP” value worked out at 39.7% and the EC50 turned out to be 0.4 µM. Also, under setting [1], the Emax was found to be 62.2%. Besides, the Emax under setting [2] was over 5%.

For `C[C@]12Cc3cnn(-c4ccc(F)cc4)c3C=C1CC[C@@H]2CN(CC(O)c1ccccn1)S(=O)(=O)CC(F)(F)F` (stereo partly drawn) [Example 142, 2,2,2-trifluoro-N-{[(4αR,5S)-1-(4-fluorophenyl)-4α-methyl-1,4,4α,5,6,7-hexahydrocyclopenta[f]indazol-5-yl]methyl}-N-(2-hydroxy-2-pyridin-2-ylethyl)ethanesulfonamide], the “GITAR > GRAMM % SEP” value came out at 14.4% and the EC50 was 0.14 µM. Further, under setting [1], the Emax worked out at 92.5%. Also, the Emax under setting [2] was over 5%.

For `C[C@]12Cc3cnn(-c4ccc(F)cc4)c3C=C1CC[C@@H]2CN(CC(O)c1cccnc1)S(=O)(=O)CC(F)(F)F` (stereo partly drawn) [Example 143, 2,2,2-trifluoro-N-{[(4αR,5S)-1-(4-fluorophenyl)-4α-methyl-1,4,4α,5,6,7-hexahydrocyclopenta[f]indazol-5-yl]methyl}-N-(2-hydroxy-2-pyridin-3-ylethyl)ethanesulfonamide], the “GITAR > GRAMM % SEP” value worked out at 7.7% and the EC50 is 0.225 µM. The Emax under setting [1] came to 91.2%. Moreover, the Emax under setting [2] was over 5%.

In the case of `C[C@]12Cc3cnn(-c4ccc(F)cc4)c3C=C1CC[C@@H]2CN(CC(O)c1ccncc1)S(=O)(=O)CC(F)(F)F` (stereo partly drawn) [Example 144, 2,2,2-trifluoro-N-{[(4αR,5S)-1-(4-fluorophenyl)-4α-methyl-1,4,4α,5,6,7-hexahydrocyclopenta[f]indazol-5-yl]methyl}-N-(2-hydroxy-2-pyridin-4-ylethyl)ethanesulfonamide], the “GITAR > GRAMM % SEP” value is 18.1% and the EC50 worked out at 0.334 µM. In addition, the Emax under setting [1] came to 91.6%. In addition, under setting [2], the Emax was over 5%.
